Test results as given in publication PMC11599936, “New-to-nature CO2-dependent acetyl-CoA assimilation enabled by an engineered B12-dependent acyl-CoA mutase” (Nature Communications, 2024).

Assays:
Format in all cases: biochemical
[1] = target: T1, 2-hydroxyisobutyryl-CoA mutase from Aquincola tertiaricarbonis (Aquincola tertiaricarbonis, UniProt I3VE74+I3VE77); assay: coupled PhaJ/Etr1p assay, NADPH at […] nm; details: 12.5 µM coenzyme B12, 50 mM NaPO4 pH 7, 30 °C
T1 construct: gene hcmA
T1 sequence (I3VE77 1-562): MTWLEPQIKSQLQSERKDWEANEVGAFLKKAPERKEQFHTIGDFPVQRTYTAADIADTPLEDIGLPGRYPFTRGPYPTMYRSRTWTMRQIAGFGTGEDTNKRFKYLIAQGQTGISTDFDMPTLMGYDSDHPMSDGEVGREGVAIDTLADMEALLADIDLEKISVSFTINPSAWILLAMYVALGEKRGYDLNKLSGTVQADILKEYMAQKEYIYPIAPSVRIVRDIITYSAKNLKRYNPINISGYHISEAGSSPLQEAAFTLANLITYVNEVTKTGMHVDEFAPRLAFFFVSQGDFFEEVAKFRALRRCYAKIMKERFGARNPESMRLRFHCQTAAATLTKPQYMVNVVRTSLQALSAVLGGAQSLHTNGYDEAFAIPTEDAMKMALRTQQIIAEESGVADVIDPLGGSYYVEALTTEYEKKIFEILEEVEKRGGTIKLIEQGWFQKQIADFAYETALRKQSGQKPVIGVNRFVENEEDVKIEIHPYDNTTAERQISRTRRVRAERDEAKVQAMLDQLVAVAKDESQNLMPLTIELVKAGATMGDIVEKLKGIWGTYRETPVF
T1 sequence (I3VE74 1-136): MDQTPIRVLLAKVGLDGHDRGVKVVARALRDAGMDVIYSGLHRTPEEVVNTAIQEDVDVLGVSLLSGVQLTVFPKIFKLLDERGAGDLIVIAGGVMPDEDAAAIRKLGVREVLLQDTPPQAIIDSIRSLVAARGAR

AbfT = target: T2, AbfT (Clostridium aminobutyricum, UniProt Q9RM86); assay: LC-MS CoA-transfer assay; details: 100 mM HEPES pH 7.5, 10 mM MgCl2, 30 °C
T2 construct: recombinant from E. coli BL21 (DE3), Ni-NTA purified
T2 sequence (Q9RM86 1-438): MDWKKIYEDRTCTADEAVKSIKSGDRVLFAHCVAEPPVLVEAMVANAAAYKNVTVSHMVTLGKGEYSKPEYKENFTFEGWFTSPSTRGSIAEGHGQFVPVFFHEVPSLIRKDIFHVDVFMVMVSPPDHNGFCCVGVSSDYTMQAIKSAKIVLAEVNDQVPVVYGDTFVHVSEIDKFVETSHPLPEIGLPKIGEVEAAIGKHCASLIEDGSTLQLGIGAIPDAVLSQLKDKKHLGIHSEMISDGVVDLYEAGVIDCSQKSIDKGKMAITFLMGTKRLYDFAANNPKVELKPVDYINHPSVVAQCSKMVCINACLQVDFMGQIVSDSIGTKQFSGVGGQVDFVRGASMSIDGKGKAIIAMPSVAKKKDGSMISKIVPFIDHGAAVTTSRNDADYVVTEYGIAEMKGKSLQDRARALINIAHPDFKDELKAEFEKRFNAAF

Pct = target: T3, Pct (Cupriavidus necator, UniProt Q0K874); assay: LC-MS CoA-transfer assay; details: 100 mM HEPES pH 7.5, 10 mM MgCl2, 30 °C
T3 construct: recombinant from E. coli BL21 (DE3), Ni-NTA purified
T3 sequence (Q0K874 1-542): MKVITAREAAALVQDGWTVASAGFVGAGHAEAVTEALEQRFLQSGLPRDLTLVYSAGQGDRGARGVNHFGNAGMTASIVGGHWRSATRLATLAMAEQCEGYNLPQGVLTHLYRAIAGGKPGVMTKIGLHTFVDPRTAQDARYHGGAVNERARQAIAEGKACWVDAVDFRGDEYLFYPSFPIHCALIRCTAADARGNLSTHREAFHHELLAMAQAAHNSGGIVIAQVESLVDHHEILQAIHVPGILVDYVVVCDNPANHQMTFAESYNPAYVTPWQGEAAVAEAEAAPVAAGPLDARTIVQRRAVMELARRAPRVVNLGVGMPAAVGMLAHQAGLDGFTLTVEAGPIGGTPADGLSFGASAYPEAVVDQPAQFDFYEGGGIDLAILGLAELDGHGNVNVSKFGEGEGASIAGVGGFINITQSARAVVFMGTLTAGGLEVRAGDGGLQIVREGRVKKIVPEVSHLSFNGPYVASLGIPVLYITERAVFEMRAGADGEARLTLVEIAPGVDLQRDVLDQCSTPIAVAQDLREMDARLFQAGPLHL

[2] = CoA donor acetyl-CoA 100 µM, 1 mM acid

## CC(C)(O)C(=O)SCCNC(=O)CCNC(=O)[C@H](O)C(C)(C)COP(=O)(O)OP(=O)(O)OC[C@H]1O[C@@H](n2cnc3c(N)ncnc32)[C@H](O)[C@@H]1OP(=O)(O)O [2-hydroxyisobutyryl-CoA]
[1]
  coupled PhaJ/Etr1p assay, NADPH at 340 nm: we confirmed functionality of this purified enzyme with its native substrate 2-hydroxyisobutyryl-CoA

## O=C(O)CCO [3-hydroxypropionate]
AbfT; [2]
  LC-MS CoA-transfer assay: performed best with 3-HP as CoA-acceptor and acetyl-CoA as CoA-donor
Pct; [2]
  LC-MS CoA-transfer assay: performed best with 3-HP as CoA-acceptor and acetyl-CoA as CoA-donor

## CC(=O)SCCNC(=O)CCNC(=O)[C@H](O)C(C)(C)COP(=O)(O)OP(=O)(O)OC[C@H]1O[C@@H](n2cnc3c(N)ncnc32)[C@H](O)[C@@H]1OP(=O)(O)O [acetyl-CoA]
AbfT; CoA acceptor 3-HP 1 mM
  LC-MS CoA-transfer assay: performed best with 3-HP as CoA-acceptor and acetyl-CoA as CoA-donor
Pct; CoA acceptor 3-HP 1 mM
  LC-MS CoA-transfer assay: performed best with 3-HP as CoA-acceptor and acetyl-CoA as CoA-donor
